Measured values taken from ChEMBL document CHEMBL1154221, “Farinomalein, a maleimide-bearing compound from the entomopathogenic fungus Paecilomyces farinosus” (2009).

System: Phytophthora sojae
Assay: Antioomycete activity against Phytophthora sojae P6497 after 48 to 96 hrs by disc diffusion method
Format: functional

Row | MIC | Compound
1 | 5 µg | CC(C)C1=CC(=O)N(CCC(=O)O)C1=O [FARINOMALEIN]
2 | 10 µg | C[C@@H]1[C@H](O)[C@@H](C)/C=C/C=C/C=C/C=C/C=C/C=C/C=C/[C@H](O[C@@H]2O[C@H](C)[C@@H](O)[C@H](N)[C@@H]2O)C[C@@H]2O[C@](O)(C[C@@H](O)C[C@@H](O)[C@H](O)CC[C@@H](O)C[C@@H](O)CC(=O)O[C@H]1C)C[C@H](O)[C@H]2C(=O)O [AMPHOTERICIN B]
